Test results as given in ChEMBL document CHEMBL1201862, “PubChem BioAssay data set” (2004).
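96-well plates; 48 h exposure; 5 concentrations. Endpoints by linear interpolation between flanking doses. Not reached: highest tested concentration assigned. The concentration for 50% growth inhibition is given as GI50.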 Activity calls are given as the source filed them. No stated cut-off is given here; in the data, active = GI50 up to about 1.1 µM and inactive = higher. Starred links: 1 amine or outer side, 2 acyl side, 3 side chain; linkers in the order of their positions; H or OH if unused. Positions of bridges follow the written chain, without caps; N, C: chain ends. Non-standard residues stand in square brackets, D forms with d. Residues, ends and D or L forms follow the SMILES beside them. Chains are numbered I, II in the order given. Actinocin(9to1) = Cc1c2oc3c(C)ccc(C(=O)[*:1])c3nc-2c(C(=O)[*:2])c(N)c1=O; NMeV = CN[CH](C(=O)O)C(C)C; Sar = CNCC(=O)O

Tests used:
Experiment in all cases: NCI anticancer screen, dose series, 48 h
LOX IMVI = tested on: LOX IMVI
NCI-H23 = tested on: NCI-H23
OVCAR-8 = tested on: OVCAR-8
OVCAR-5 = tested on: OVCAR-5
KM12 = tested on: KM12
SF-539 = tested on: SF-539
HL-60 = tested on: HL-60
IGROV-1 = tested on: IGROV-1
HOP-92 = tested on: HOP-92
TK-10 = tested on: TK-10
A549 = tested on: A549
CCRF-CEM = tested on: CCRF-CEM
Malme-3M = tested on: Malme-3M
SK-OV-3 = tested on: SK-OV-3
NCI-H460 = tested on: NCI-H460
HCC 2998 = tested on: HCC 2998
U-251 = tested on: U-251
OVCAR-3 = tested on: OVCAR-3
MCF7 = tested on: MCF7
PC-3 = tested on: PC-3

SMILES | GI50 (LOX IMVI) | GI50 (NCI-H23) | GI50 (OVCAR-8) | GI50 (OVCAR-5) | GI50 (KM12) | GI50 (SF-539) | GI50 (HL-60) | GI50 (IGROV-1) | GI50 (HOP-92) | GI50 (TK-10) | GI50 (A549) | GI50 (CCRF-CEM) | GI50 (Malme-3M) | GI50 (SK-OV-3) | GI50 (NCI-H460) | GI50 (HCC 2998) | GI50 (U-251) | GI50 (OVCAR-3) | GI50 (MCF7) | GI50 (PC-3)
COc1cc(/C=C2/C(=O)N(C(=O)c3ccc(Cl)cc3)N=C2C)cc(OC)c1OC | > 100 µM (inactive) | > 100 µM (inactive) | > 100 µM (inactive) | > 100 µM (inactive) | > 100 µM (inactive) | > 100 µM (inactive) | > 100 µM (inactive) | > 100 µM (inactive) | > 100 µM (inactive) | > 100 µM (inactive) | > 100 µM (inactive) | > 100 µM (inactive) | > 100 µM (inactive) | > 100 µM (inactive) | > 100 µM (inactive) | > 100 µM (inactive) | > 100 µM (inactive) | > 100 µM (inactive) | – | –
CC1=CC2=C(C)C3(CC3)[C@@](C)(O)C(=O)C2=C1 | 0.174 µM (active) | 0.0822 µM (active) | 0.211 µM (active) | 0.239 µM (active) | 0.355 µM (active) | 0.219 µM (active) | 0.135 µM (active) | 0.29 µM (active) | 0.307 µM (active) | 0.329 µM (active) | 0.314 µM (active) | > 1 µM (active) | 0.0933 µM (active) | 0.293 µM (active) | 0.0783 µM (active) | 0.178 µM (active) | 0.209 µM (active) | 0.182 µM (active) | – | –
COC1=C(N)C(=O)c2nc(C)ccc2C1=O | 0.826 µM (active) | 1.47 µM (inactive) | 3.93 µM (inactive) | 1.98 µM (inactive) | 1.87 µM (inactive) | 1.91 µM (inactive) | 2.94 µM (inactive) | 9.98 µM (inactive) | 9.95 µM (inactive) | 8.2 µM (inactive) | 2.18 µM (inactive) | 17.2 µM (inactive) | 1.77 µM (inactive) | 8.04 µM (inactive) | 2.08 µM (inactive) | 4.57 µM (inactive) | 2.2 µM (inactive) | 2.02 µM (inactive) | – | –
COc1ccc2cc(C(=O)NCCCNC(=O)c3ccc4c(OC)c(OC)ccc4c3)ccc2c1OC | > 100 µM (inactive) | > 100 µM (inactive) | – | > 100 µM (inactive) | > 100 µM (inactive) | – | – | – | – | – | > 100 µM (inactive) | > 100 µM (inactive) | – | > 100 µM (inactive) | > 100 µM (inactive) | > 100 µM (inactive) | > 100 µM (inactive) | > 100 µM (inactive) | > 100 µM (inactive) | > 100 µM (inactive)
CN(C)CCNC(=O)c1cccc2ccc(-c3ccc(Br)cc3)nc12 | 1.64 µM (inactive) | 3.47 µM (inactive) | 1.55 µM (inactive) | 2.96 µM (inactive) | 3.45 µM (inactive) | 3.13 µM (inactive) | 1.23 µM (inactive) | 2.96 µM (inactive) | 2.49 µM (inactive) | – | 1.09 µM (active) | 1.09 µM (active) | 2.55 µM (inactive) | 2.82 µM (inactive) | 0.767 µM (active) | 1.85 µM (inactive) | 2.8 µM (inactive) | 3.27 µM (inactive) | 2.92 µM (inactive) | –
Cc1c(-c2ccccc2)[nH]c2cc(Cl)ccc2c1=O | 89.5 µM (inactive) | 36.3 µM (inactive) | – | > 100 µM (inactive) | 0.74 µM (active) | 39.8 µM (inactive) | 23.1 µM (inactive) | – | – | 38 µM (inactive) | 1.96 µM (inactive) | > 100 µM (inactive) | 65 µM (inactive) | 39.4 µM (inactive) | 0.631 µM (active) | > 100 µM (inactive) | 25.8 µM (inactive) | 56.9 µM (inactive) | 37 µM (inactive) | –
Cn1c2ccc(C3=NCCN3)cc2c2cc(C3=NCCN3)ccc21 | 49.4 µM (inactive) | 4.16 µM (inactive) | 28.9 µM (inactive) | 38.4 µM (inactive) | 1.56 µM (inactive) | 29.4 µM (inactive) | < 0.01 µM (active) | 24.5 µM (inactive) | 13.4 µM (inactive) | 60.3 µM (inactive) | 46.1 µM (inactive) | < 0.01 µM (active) | 18.2 µM (inactive) | 44.1 µM (inactive) | 5.38 µM (inactive) | – | 14.9 µM (inactive) | 42 µM (inactive) | – | 34.3 µM (inactive)
c1cc2c(s1)-c1sccc1C21OCCO1 | > 100 µM (inactive) | > 100 µM (inactive) | > 100 µM (inactive) | > 100 µM (inactive) | > 100 µM (inactive) | > 100 µM (inactive) | > 100 µM (inactive) | – | – | > 100 µM (inactive) | 69 µM (inactive) | > 100 µM (inactive) | 67.1 µM (inactive) | – | > 100 µM (inactive) | > 100 µM (inactive) | > 100 µM (inactive) | > 100 µM (inactive) | 49.9 µM (inactive) | –
Cc1nc2ccccc2n1Cc1nnc2n1N=C(c1ccccc1)CS2 | – | 33.2 µM (inactive) | – | 53.3 µM (inactive) | 31.2 µM (inactive) | 12.5 µM (inactive) | 29.2 µM (inactive) | 2.4 µM (inactive) | – | 40.1 µM (inactive) | 36.2 µM (inactive) | 27.9 µM (inactive) | 49.9 µM (inactive) | > 100 µM (inactive) | 33.5 µM (inactive) | 21.4 µM (inactive) | 25.1 µM (inactive) | 35.2 µM (inactive) | 27.4 µM (inactive) | 16.7 µM (inactive)
O=C(O)COc1ccc(C(=O)/C(SS/C(C(=O)c2ccc(OCC(=O)O)c(Cl)c2Cl)=C2\C=C(c3ccc(Br)cc3)SS2)=C2/C=C(c3ccc(Br)cc3)SS2)c(Cl)c1Cl | 2.69 µM (inactive) | 4.62 µM (inactive) | 5.16 µM (inactive) | 24.8 µM (inactive) | 8.13 µM (inactive) | 4.3 µM (inactive) | 1.55 µM (inactive) | 4.99 µM (inactive) | 3.5 µM (inactive) | 26.7 µM (inactive) | 33.9 µM (inactive) | 3.21 µM (inactive) | 11.5 µM (inactive) | 21.3 µM (inactive) | 19.3 µM (inactive) | 10.2 µM (inactive) | 3.47 µM (inactive) | 3.73 µM (inactive) | 0.0513 µM (active) | –
CN1CCN(c2ccc3c(c2)NCC(=O)N3)CC1 | > 100 µM (inactive) | > 100 µM (inactive) | > 100 µM (inactive) | > 100 µM (inactive) | > 100 µM (inactive) | – | > 100 µM (inactive) | > 100 µM (inactive) | > 100 µM (inactive) | > 100 µM (inactive) | > 100 µM (inactive) | > 100 µM (inactive) | > 100 µM (inactive) | > 100 µM (inactive) | > 100 µM (inactive) | > 100 µM (inactive) | > 100 µM (inactive) | > 100 µM (inactive) | – | > 100 µM (inactive)
CC(C)(O)[C@H](CCO)O[Si](c1ccccc1)(c1ccccc1)C(C)(C)C | 11.1 µM (inactive) | > 10 µM (inactive) | 10.9 µM (inactive) | 14.9 µM (inactive) | 11.6 µM (inactive) | 14.3 µM (inactive) | 4.99 µM (inactive) | 12.2 µM (inactive) | 10.8 µM (inactive) | 13.2 µM (inactive) | 7.35 µM (inactive) | 10.6 µM (inactive) | 17.1 µM (inactive) | 12.1 µM (inactive) | 11.2 µM (inactive) | 6.01 µM (inactive) | 12.4 µM (inactive) | 11.1 µM (inactive) | – | –
Nc1nc(N)c2ncn(CC(CO)CC(c3ccccc3)P(=O)(O)O)c2n1 (stereo not given) | > 100 µM (inactive) | > 100 µM (inactive) | > 100 µM (inactive) | > 100 µM (inactive) | > 100 µM (inactive) | > 100 µM (inactive) | > 100 µM (inactive) | > 100 µM (inactive) | > 100 µM (inactive) | > 100 µM (inactive) | > 100 µM (inactive) | > 100 µM (inactive) | > 100 µM (inactive) | > 100 µM (inactive) | > 100 µM (inactive) | > 100 µM (inactive) | > 100 µM (inactive) | > 100 µM (inactive) | – | –
CC(=O)OCC1OC(NC(=O)N(CCCl)N=O)C(OC(C)=O)C(OC(C)=O)C1OC(C)=O (stereo not given) | 44.8 µM (inactive) | > 100 µM (inactive) | > 100 µM (inactive) | > 100 µM (inactive) | > 100 µM (inactive) | > 89.1 µM (inactive) | > 100 µM (inactive) | > 100 µM (inactive) | > 100 µM (inactive) | – | > 100 µM (inactive) | > 100 µM (inactive) | > 100 µM (inactive) | > 100 µM (inactive) | > 83.8 µM (inactive) | > 100 µM (inactive) | 98.4 µM (inactive) | > 100 µM (inactive) | > 100 µM (inactive) | –
Cc1c2oc3c(C)ccc(C(=O)NC4C(=O)NC(Cc5ccc(O)cc5)C(=O)N5CCCC5C(=O)N(C)CC(=O)N(C)C(C(C)C)C(=O)OC4C)c3nc-2c(C(=O)NC2C(=O)NC(Cc3ccc(O)cc3)C(=O)N3CCCC3C(=O)N(C)CC(=O)N(C)C(C(C)C)C(=O)OC2C)c(N)c1=O (stereo not given) (I: TYP[Sar][NMeV] / II: TYP[Sar][NMeV]; ester I:1-I:C, II:1-II:C; linker I:N-II:N via Actinocin(9to1); configuration not given here) | 0.0859 µM (active) | 0.494 µM (active) | 0.8 µM (active) | 7.66 µM (inactive) | 0.577 µM (active) | 0.726 µM (active) | – | 0.149 µM (active) | – | 13.7 µM (inactive) | 0.635 µM (active) | – | 0.392 µM (active) | 10.5 µM (inactive) | 0.215 µM (active) | > 40.2 µM (inactive) | 0.374 µM (active) | 1.63 µM (inactive) | 0.0805 µM (active) | 4.11 µM (inactive)
